Measurements as given in patent publication US5286729A, “Angiotensin II receptor blocking 2,3,6 substituted quinazolinones” (American Cyanamid Company, priority 1993, dated 1994).
Values joined by “and” are separate entries in the source; they are usually repeats but may differ in a detail not shown here. Identical values can stand only once.

Test system: ANGIOTENSIN II (AII) VASOPRESSOR RESPONSE
Test: AII Challenge: % inhibition (angiotensin blockage) of angiotensin II vasopressor response in conscious SHR
Format: in vivo, rat (Male Okamoto-Aoki SHR)
Settings: for Response After AII / Change / Control Before AII: individual rats
Description: By administering a compound of this invention to a rat, and then challenging with angiotensin II, a blockage of the vasopressor response is realized. The results of this test on representative compounds of this invention are shown in Table V. Conscious Male Okamoto-Aoki SHR, 16-20 weeks old, weighing approximately 330 g are purchased from Charles River Labs (Wilmington, MA). Conscious rats are restrained in a supine position with elastic tape. The area at the base of the tail is locally anesthetized by subcutaneous infiltration with 2% procaine. The central caudal artery and vein are isolated, and a cannula made of polyethylene (PE) 10-20 tubing (fused together by heat) is passed into the lower abdominal aorta and vena cava, respectively. The cannula is secured, heparinized (1,000 I.U./ml), sealed and the wound is closed. The animals are placed in plastic restraining cages in an upright position. The cannula is attached to a Statham P23Db pressure transducer, and pulsatile blood pressure is recorded to 10-15 minutes with a Gould Brush recorder. (Chan et al., (Drug Development Res., 18:75-94, 1989). Angiotensin II (human sequence, Sigma Chem. Co., St. Louis, MO) of 0.05 and 0.1 ug/kg i.v. is injected into all rats (predosing repsonse). Then a test compound, vehicle or a known angiotensin II antagonist is administered i.v., i.p. or orally to each set of rats. The two doses of angiotensin II are given to each rat again at 30, 60, 90, 120, 180, 240 and 300 minutes post dosing the compound or vehicle. The vasopressor response of angiotensin II is measured for the increase in systolic blood pressure in mmHg. The percentage of antagonism or blockade of the vasopressor response of angiotensin II by a compound is calculated using the vasopressor response (increase in systolic blood pressure) of angiotensin II of each rat predosing the compound as 100%. A compound is considered active if at 30 mg/kg i.v. it antagonized at least 50% of the response.

[1] = 5 mg/kg IV, AII 0.05 mcg/kg IV, 30 min post dose
[2] = 5 mg/kg IV, AII 0.05 mcg/kg IV, 30 min post dose, monohydrochloride
[3] = 5 mg/kg IV, AII 0.05 mcg/kg IV, 60 min post dose
[4] = 5 mg/kg IV, AII 0.05 mcg/kg IV, 60 min post dose, monohydrochloride
[5] = 5 mg/kg IV, AII 0.05 mcg/kg IV, 90 min post dose
[6] = 5 mg/kg IV, AII 0.05 mcg/kg IV, 90 min post dose, monohydrochloride
[7] = 5 mg/kg IV, AII 0.05 mcg/kg IV, 120 min post dose
[8] = 5 mg/kg IV, AII 0.05 mcg/kg IV, 120 min post dose, monohydrochloride
[9] = 5 mg/kg IV, AII 0.05 mcg/kg IV, 180 min post dose
[10] = 5 mg/kg IV, AII 0.05 mcg/kg IV, 180 min post dose, monohydrochloride
[11] = 5 mg/kg IV, AII 0.1 mcg/kg IV, 30 min post dose
[12] = 5 mg/kg IV, AII 0.1 mcg/kg IV, 30 min post dose, monohydrochloride
[13] = 5 mg/kg IV, AII 0.1 mcg/kg IV, 60 min post dose
[14] = 5 mg/kg IV, AII 0.1 mcg/kg IV, 60 min post dose, monohydrochloride
[15] = 5 mg/kg IV, AII 0.1 mcg/kg IV, 90 min post dose
[16] = 5 mg/kg IV, AII 0.1 mcg/kg IV, 90 min post dose, monohydrochloride
[17] = 5 mg/kg IV, AII 0.1 mcg/kg IV, 120 min post dose
[18] = 5 mg/kg IV, AII 0.1 mcg/kg IV, 120 min post dose, monohydrochloride
[19] = 5 mg/kg IV, AII 0.1 mcg/kg IV, 180 min post dose
[20] = 5 mg/kg IV, AII 0.1 mcg/kg IV, 180 min post dose, monohydrochloride
[21] = 10 mg/kg P.O., AII 0.05 mcg/kg IV, 30 min post dose
[22] = 10 mg/kg P.O., AII 0.05 mcg/kg IV, 30 min post dose, monohydrochloride
[23] = 10 mg/kg P.O., AII 0.05 mcg/kg IV, 60 min post dose
[24] = 10 mg/kg P.O., AII 0.05 mcg/kg IV, 60 min post dose, monohydrochloride
[25] = 10 mg/kg P.O., AII 0.05 mcg/kg IV, 90 min post dose
[26] = 10 mg/kg P.O., AII 0.05 mcg/kg IV, 90 min post dose, monohydrochloride
[27] = 10 mg/kg P.O., AII 0.05 mcg/kg IV, 120 min post dose
[28] = 10 mg/kg P.O., AII 0.05 mcg/kg IV, 120 min post dose, monohydrochloride
[29] = 10 mg/kg P.O., AII 0.05 mcg/kg IV, 180 min post dose
[30] = 10 mg/kg P.O., AII 0.05 mcg/kg IV, 180 min post dose, monohydrochloride
[31] = 10 mg/kg P.O., AII 0.1 mcg/kg IV, 30 min post dose
[32] = 10 mg/kg P.O., AII 0.1 mcg/kg IV, 30 min post dose, monohydrochloride
[33] = 10 mg/kg P.O., AII 0.1 mcg/kg IV, 60 min post dose
[34] = 10 mg/kg P.O., AII 0.1 mcg/kg IV, 90 min post dose
[35] = 10 mg/kg P.O., AII 0.1 mcg/kg IV, 120 min post dose
[36] = 10 mg/kg P.O., AII 0.1 mcg/kg IV, 120 min post dose, monohydrochloride
[37] = 10 mg/kg P.O., AII 0.1 mcg/kg IV, 180 min post dose
[38] = 10 mg/kg P.O., AII 0.1 mcg/kg IV, 180 min post dose, monohydrochloride

## CCCCc1nc2ccc(COc3ccccn3)cc2c(=O)n1Cc1ccc(-c2ccccc2-c2nnn[nH]2)cc1.Cl [Example 12, 2-Butyl-6-[(2-pyridinyloxy)methyl]-3-[[2'-(1H-tetrazol-5-yl)[1,1'-biphenyl]-4-yl]methyl]-4(3H)-quinazolinone monohydrochloride]
[1]
  % Inhibition: 62%
  Average Change: 12.5 mmHg
  Response After AII: 195 mmHg
[2]
  Change: 10 mmHg and 15 mmHg
  Control Before AII: 185 mmHg and 180 mmHg
[3]
  % Inhibition: 92%
  Average Change: 2.5 mmHg
  Control Before AII: 175 mmHg
  Response After AII: 180 mmHg
[4]
  Change: 0 mmHg and 5 mmHg
  Response After AII: 175 mmHg
[5]
  % Inhibition: 69%
  Average Change: 10 mmHg
  Change: 10 mmHg
  Response After AII: 170 mmHg
[6]
  Control Before AII: 160 mmHg and 165 mmHg
  Response After AII: 175 mmHg
[7]
  % Inhibition: 77%
  Average Change: 7.5 mmHg
  Control Before AII: 165 mmHg
  Response After AII: 170 mmHg
[8]
  Change: 10 mmHg and 5 mmHg
  Response After AII: 175 mmHg
[9]
  % Inhibition: 66%
  Average Change: 11 mmHg
[10]
  Change: 7 mmHg and 15 mmHg
  Control Before AII: 165 mmHg and 155 mmHg
  Response After AII: 172 mmHg and 170 mmHg
[11]
  % Inhibition: 65%
  Average Change: 15 mmHg
  Control Before AII: 185 mmHg
  Response After AII: 195 mmHg
[12]
  Change: 10 mmHg and 20 mmHg
  Control Before AII: 175 mmHg
[13]
  % Inhibition: 71%
  Average Change: 12.5 mmHg
  Response After AII: 185 mmHg
[14]
  Change: 15 mmHg and 10 mmHg
  Control Before AII: 170 mmHg and 175 mmHg
[15]
  % Inhibition: 76%
  Average Change: 10 mmHg
  Change: 10 mmHg
[16]
  Control Before AII: 160 mmHg and 170 mmHg
  Response After AII: 170 mmHg and 180 mmHg
[17]
  % Inhibition: 65%
  Average Change: 15 mmHg
  Control Before AII: 165 mmHg
[18]
  Change: 20 mmHg and 10 mmHg
  Response After AII: 185 mmHg and 175 mmHg
[19]
  % Inhibition: 51%
  Average Change: 21 mmHg
  Control Before AII: 160 mmHg
[20]
  Change: 20 mmHg and 22 mmHg
  Response After AII: 180 mmHg and 182 mmHg
[21]
  % Inhibition: 56%
  Average Change: 17.5 mmHg
  Control Before AII: 185 mmHg
  Response After AII: 210 mmHg
[22]
  Change: 25 mmHg and 10 mmHg
  Control Before AII: 200 mmHg
[23]
  % Inhibition: 44%
  Average Change: 22.5 mmHg
  Control Before AII: 185 mmHg
  Response After AII: 220 mmHg
[24]
  Change: 25 mmHg and 20 mmHg
  Control Before AII: 195 mmHg
  Response After AII: 205 mmHg
[25]
  % Inhibition: 59%
  Average Change: 16.5 mmHg
  Control Before AII: 195 mmHg
[26]
  Change: 30 mmHg and 3 mmHg
  Control Before AII: 190 mmHg
  Response After AII: 220 mmHg and 198 mmHg
[27]
  % Inhibition: 69%
  Average Change: 12.5 mmHg
  Control Before AII: 210 mmHg
  Response After AII: 230 mmHg
[28]
  Change: 20 mmHg and 5 mmHg
  Response After AII: 215 mmHg
[29]
  % Inhibition: 50%
  Average Change: 20 mmHg
  Control Before AII: 185 mmHg
[30]
  Change: 25 mmHg and 15 mmHg
  Response After AII: 210 mmHg and 200 mmHg
[31]
  % Inhibition: 34%
  Average Change: 27.5 mmHg
  Response After AII: 220 mmHg
[32]
  Change: 35 mmHg and 20 mmHg
  Control Before AII: 185 mmHg and 200 mmHg
[33]
  % Inhibition: 16%
  Average Change: 35 mmHg
  Change: 35 mmHg
  Control Before AII: 185 mmHg
  Response After AII: 220 mmHg
[34]
  % Inhibition: 28%
  Average Change: 30 mmHg
  Change: 30 mmHg
  Control Before AII: 190 mmHg
  Response After AII: 220 mmHg
[35]
  % Inhibition: 52%
  Average Change: 20 mmHg
  Control Before AII: 205 mmHg
  Response After AII: 235 mmHg
[36]
  Change: 30 mmHg and 10 mmHg
  Response After AII: 215 mmHg
[37]
  % Inhibition: 40%
  Average Change: 25 mmHg
  Response After AII: 210 mmHg
[38]
  Change: 35 mmHg and 15 mmHg
  Control Before AII: 190 mmHg and 195 mmHg
  Response After AII: 225 mmHg
